Data published in the NIST ThermoML archive (doi:10.1021/je5000296).
± gives the expanded uncertainty stated by the source.

Settings: Liquid, Ebulliometric method (Recirculating still)

| SMILES | vapor or sublimation pressure (399.15 K) [kPa] | vapor or sublimation pressure (390.48 K) [kPa] |
| --- | --- | --- |
| CCCCOC(C)=O [butyl ethanoate] | 101.3 ± 0.91 |  |
| CCCCO [butan-1-ol] |  | 101.3 ± 0.91 |
